Like-named read-outs stand apart in the source and are kept apart here. Values belong to the compound of their own block, whether it stands above or below them.
What was measured:
[1] = test system: Plasmodium falciparum (NF54); assay: In vitro antimalarial activity, [3H]hypoxanthine incorporation into chloroquine-sensitive P. falciparum (NF 54); type: cell-based
Experimental: the protozoan Plasmodium falciparum is a causative agent of malaria. The antimalarial activity of 2,3-dioxabicyclo[3.3.1]nonanes of type A was determined by measuring the incorporation of [^3 H]hypoxanthine, by the methods of Desjardins^9 and Milhous,^10 into […] Plasmodium falciparum (NF54)^11 in the presence of varying drug concentrations. Dose-response response curves that were fit to the experimental data by means of the Marquardt algorithm^12 were solved for the drug concentration that kills 50% of parasites (IC50), and were analyzed for accuracy of fit (R^2 value, typically ≥0.99). Provisional IC50 values were obtained in a survey of seven 5-fold dilutions (in triplicate) of stock solutions of chromatographically-purified or recrystalized test compound. Assay were later expanded to include ten concentrations (in quadruplicate) of ~1.8-fold dilutions, which flank the provisional IC50.
Tables 1-3 present tabulations of a number of compounds that have been synthesized along with the IC50 (in nM).

[2] = test system: Plasmodium falciparum (NF54); details: recorded under the same conditions; cited from earlier work
[3] = test system: Plasmodium berghei (N strain); parameters: ED90: unit not given beside the values; ED50: unit not given here; details: against P. berghei; cited from earlier work
[4] = test system: Plasmodium yoelii (ssp. NS); parameters: ED90: unit not given beside the values; ED50: unit not given here; details: against P. yoelii; cited from earlier work
[5] = test system: Plasmodium berghei (N strain); assay: In vivo antimalarial activity against chloroquine-sensitive Plasmodium berghei (N strain), four-day test in mice; details: sc, P. berghei (N strain), subcutaneous, daily dose, fourday test
Experimental: (§1) Based on the in vitro antimalarial activity of compounds of type A, the in vivo antimalarial activity of two representatives, namely of compounds 23a and 34a, were tested.
(§2) *ED50 and ED90 are given as the daily dose in mg/Kg, repeated
(§3) every 4 days. Substances were administered to mice subcutaneously and
(§4) tested by the fourday test.^14,15

[6] = test system: Plasmodium yoelii (ssp. NS); assay: In vivo antimalarial activity against chloroquine-resistant Plasmodium yoelii (ssp. NS), four-day test in mice; details: sc, P. yoelii (ssp. NS), subcutaneous, daily dose, fourday test
Experimental: as §1, §2, §3, §4

[7] = cited from earlier work
[8] = rats, high doses; cited from earlier work
[9] = test system: mouse neuroblastoma cells; details: cited from earlier work
[10] = Plasmodium falciparum, NF54, Expansion data (ten concentrations, quadruplicate, ~1.8-fold dilutions)
[11] = Plasmodium falciparum, NF54, Survey data (provisional; seven 5-fold dilutions in triplicate)

IC50 [1, 10]: 21 nM
SMILES: C[C@@]1(OC(=O)C(=O)N(Cc2ccccc2)Cc2ccccc2)CC[C@@H]2C[C@H]1OO[C@@]2(C)CS(=O)(=O)c1ccccc1 [Compound 26a, (1R,4R,5R,8R)-8-dibenzylaminooxalyloxy-4,8-dimethyl-4-phenylsulfonylmethyl-2,3-dioxabicyclo[3.3.1]nonane]

IC50 [1, 10]: 32 nM
SMILES: C[C@@]1(OC/C=C/c2ccccc2)CC[C@@H]2C[C@H]1OO[C@@]2(C)CS(=O)(=O)c1ccccc1 [Compound 36a, (1R,4R,5R,8R)-8-(trans-cinnamyloxy)-4,8-dimethyl-4-phenylsulfonylmethyl-2,3-dioxabicyclo[3.3.1]nonane]

IC50 [1, 11]: 490 nM
SMILES: CC1=CC[C@@H]2C[C@H]1OO[C@@]2(C)CS(=O)(=O)c1ccccc1 [Compound 37a, (1R,4R,5R)-4,8-dimethyl-4-phenylsulfonylmethyl-2,3-dioxabicyclo[3.3.1]non-7-ene]

IC50 [1, 10]: 55 nM
SMILES: C[C@@]1(O)CC[C@@H]2C[C@H]1OO[C@@]2(C)CS(=O)(=O)c1ccccc1 [Compound 21a, (1R,4R,5R,8R)-4,8-dimethyl-4-phenylsulfonylmethyl-2,3-dioxabicyclo [3.3.1]nonan-8-ol]

IC50 [1, 10]: 14 nM
SMILES: COc1ccc(CO[C@]2(C)CC[C@@H]3C[C@H]2OO[C@@]3(C)CS(=O)(=O)c2ccccc2)cc1 [Compound 34a, (1R,4R,5R,8R)-4,8-dimethyl-8-(p-methoxybenzyloxy)-4-phenylsulfonylmethyl-2,3-dioxabicyclo[3.3.1]nonane]
ED50 [5]: 1.3 mg/kg | ED90 [5]: 2.3 mg/kg/day | ED50 [6]: 4.8 mg/kg | ED90 [6]: 8.3 mg/kg/day

IC50 [1, 10]: 140 nM
SMILES: CCOC(=O)C(=O)O[C@]1(C)CC[C@@H]2C[C@H]1OO[C@]2(C)CS(=O)(=O)c1ccccc1 [Compound 25b, (1R,4S,5R,8R)-8-ethoxyoxalyloxy-4,8-dimethyl-4-phenylsulfonylmethyl-2,3-dioxabicyclo [3.3.1]nonane]

IC50 [1, 10]: 150 nM
SMILES: C[C@]1(CS(=O)(=O)c2ccccc2)OO[C@@H]2C[C@H]1CC[C@@]2(C)OC(=O)Oc1ccccc1 [Compound 27b, (1R,4S, 5R,8R)-4,8-dimethyl-8-phenoxycarbonyloxy-4-phenylsulfonylmethyl-2,3-dioxabicyclo[3.3.1]nonane]

IC50 [1, 10]: 81 nM
SMILES: C[C@]1(CS(=O)(=O)c2ccccc2)OO[C@@H]2C[C@H]1CC[C@@]2(C)OC(=O)C(=O)N(Cc1ccccc1)Cc1ccccc1 [Compound 26b, (1R,4S,5R,8R)-dibenzylaminooxalyloxy-4,8-dimethyl-4-phenylsulfonylmethyl-2,3-dioxabicyclo[3.3.1]nonane]

IC50 [1, 10]: 89 nM
SMILES: C[C@]1(CS(=O)(=O)c2ccccc2)OO[C@@H]2C[C@H]1CC[C@@]2(C)O [Compound 21b, (1R,4S,5R,8R)-4,8-dimethyl-4-phenylsulfonylmethyl-2,3-dioxabicyclo[3.3.1]nonan-8-ol]

IC50 [1, 10]: 92 nM
SMILES: C[C@@]12O[C@@H]1C[C@@H]1C[C@H]2OO[C@@]1(C)CS(=O)(=O)c1ccccc1 [Compound 39a, (1R,4R,5R,7R,8R)-7,8-epoxy-4,8-dimethyl-4-phenylsulfonylmethyl-2,3-dioxabicyclo[3.3.1]nonane]

IC50 [1, 11]: 250 nM
SMILES: C[C@@]1(O)[C@@H]2C[C@H](C[C@@H]1OC(=O)c1ccccc1)[C@@](C)(CS(=O)(=O)c1ccccc1)OO2 [Compound 29a, (1S,4S,5S,7S,8S)-7-benzoyloxy-4,8-dimethyl-4-phenylsulfonylmethyl-2,3-dioxabicyclo[3.3.1]nonan-8-ol]

IC50 [1, 10]: 24 nM
SMILES: C[C@H]1CC[C@@H]2C[C@H]1OO[C@]2(C)CS(=O)(=O)c1ccccc1 [Compound 22b, (1R,4S,5R,8S)-4,8-dimethyl-4-phenylsulfonylmethyl-2,3-dioxabicyclo[3.3.1]nonane]

The next lines start with the compound.

SMILES: C[C@@]1(OC(=O)Oc2ccccc2)CC[C@@H]2C[C@H]1OO[C@@]2(C)CS(=O)(=O)c1ccccc1 [Compound 27a, (1R,4R,5R,8R)-4,8-dimethyl-8-phenoxycarbonyloxy-4-phenylsulfonylmethyl-2,3-dioxabicyclo[3.3.1]nonane]
IC50 [1, 10]: 47 nM

SMILES: C[C@@H]1CC[C@H]2[C@@H](C)C(=O)O[C@@H]3O[C@@]4(C)CC[C@@H]1[C@]32OO4 [artemisinin]
IC50 [2]: 11 nM | ED50 [3]: 0.95 | ED90 [3]: 2.5 | ED50 [4]: 5.8 | ED90 [4]: 10.0

SMILES: C[C@H]1CC[C@@H]2C[C@H]1OO[C@@]2(C)CS(=O)(=O)c1ccccc1 [Compound 22a, (1R,4R,5R,8S)-4,8-dimethyl-4-phenylsulfonylmethyl-2,3-dioxabicyclo [3.3.1]nonane]
IC50 [1, 10]: 17 nM

SMILES: CCCCS(=O)(=O)C[C@@]1(C)OO[C@H]2C[C@@H]1C[C@H](OC(=O)c1ccccc1)[C@]2(C)O [Compound 30a, (1S,4S,5S,7S,8S)-7-benzoyloxy-4-n-butylsulfonylmethyl-4,8-dimethyl-2,3-dioxabicyclo[3.3.1]nonan-8-ol]
IC50 [1, 11]: 300 nM

SMILES: CCOC(=O)C(=O)O[C@]1(C)CC[C@@H]2C[C@H]1OO[C@@]2(C)CS(=O)(=O)c1ccccc1 [Compound 25a, (1R,4R,5R,8R)-8-ethoxyoxyalyloxy-4,8-dimethyl-4-phenylsulfonylmethyl-2,3-dioxabicyclo [3.3.1]nonane]
IC50 [1, 10]: 170 nM

SMILES: CC(=O)O[C@]1(C)CC[C@@H]2C[C@H]1OO[C@]2(C)C[S+]([O-])c1ccccc1 (stereo partly drawn) [Compound 41b, (1R,4S,5R,8R)-8-acetoxy-4,8-dimethyl-4-phenylsulfinylmethyl-2,3-dioxabicyclo[3.3.1]nonanes]
IC50 [1, 10]: 71 nM

SMILES: CC(=O)CC(=O)O[C@]1(C)CC[C@@H]2C[C@H]1OO[C@]2(C)CS(=O)(=O)c1ccccc1 [Compound 24b, (1R,4S,5R,8R)-8-acetylacetoxy-4,8-dimethyl-4-phenylsulfonylmethyl-2,3-dioxabicyclo [3.3.1]nonane]
IC50 [1, 10]: 73 nM

SMILES: C[C@@H]1C(=O)C[C@H]2C[C@@H]1OO[C@@]2(C)/C=C\c1ccc(C(F)(F)F)cc1C(F)(F)F [arteflene]
ED50 [3]: 2.7 | ED90 [3]: 3.9 | in vitro and in vivo antimalarial screening, clinical trials [7]: gave encouraging results

SMILES: C[C@]1(CSc2ccccc2)OOC2C[C@@H]1C[C@H](OC(=O)c1ccccc1)[C@]2(C)O (stereo in doubt) [Compound 4a, (1R,4S,5S,7S,8S)-7-benzoyloxy-4,8-dimethyl-4-phenylthiomethyl-2,3-dioxabicyclo[3.3.1]nonan-8-ol]
IC50 [1, 11]: 110 nM

SMILES: CC(=O)O[C@]1(C)CC[C@@H]2C[C@H]1OO[C@]2(C)CS(=O)(=O)c1ccccc1 [Compound 23b, (1R,4S,5R,8R)-8-acetoxy-4,8-dimethyl-4-phenylsulfonylmethyl-2,3-dioxabicyclo[3.3.1]nonane]
IC50 [1, 10]: 17 nM

SMILES: CC(=O)CC(=O)O[C@]1(C)CC[C@@H]2C[C@H]1OO[C@@]2(C)CS(=O)(=O)c1ccccc1 [Compound 24a, (1R,4R,5R,8R)-8-acetylacetoxy-4,8-dimethyl-4-phenylsulfonylmethyl-2,3-dioxabicyclo[3.3.1]nonane]
IC50 [1, 10]: 46 nM

SMILES: CC(=O)O[C@]1(C)CC[C@@H]2C[C@H]1OO[C@@]2(C)CS(=O)(=O)c1ccccc1 [Compound 23a, (1R,4R,5R,8R)-8-acetoxy-4,8-dimethyl-4-phenylsulfonylmethyl-2,3-dioxabicyclo [3.3.1]nonane]
IC50 [1, 10]: 17 nM | ED50 [5]: 3.7 mg/kg | ED90 [5]: 7.3 mg/kg/day | ED50 [6]: 12.5 mg/kg | ED90 [6]: 28 mg/kg/day

SMILES: CC(C)=CCO[C@]1(C)CC[C@@H]2C[C@H]1OO[C@@]2(C)CS(=O)(=O)c1ccccc1 [Compound 35a, (1R,4R,5R,8R)-4,8-dimethyl-8-(γ,γ-dimethylallyloxy)-4-phenylsulfonylmethyl-2,3dioxabicyclo[3.3.1]nonane]
IC50 [1, 10]: 35 nM

SMILES: CO[C@H]1O[C@@H]2O[C@@]3(C)CC[C@H]4[C@H](C)CC[C@@H]([C@H]1C)[C@@]24OO3 [artemether]
neurotoxicity [8]: neurotoxicity has been seen

SMILES: C[C@@H]1CC[C@H]2[C@@H](C)C(O)O[C@@H]3O[C@@]4(C)CC[C@@H]1[C@]32OO4 (stereo partly shown) [dihydroarte-mesinin]
neurotoxicity [9]: neurotoxicity has been seen

SMILES: CC(=O)O[C@]1(C)CC[C@@H]2C[C@H]1OO[C@@]2(C)C[S+]([O-])c1ccccc1 (stereo partly drawn) [Compound 41a, (1R,4R,5R,8R)-8-acetoxy-4,8-dimethyl-4-phenylsulfinylmethyl-2,3-dioxabicyclo[3.3.1]nonanes]
IC50 ([1]; Expansion data (ten concentrations, quadruplicate, ~1.8-fold dilutions)): 40 nM | IC50 ([1]; Expansion data (ten concentrations, quadruplicate, ~1.8-fold dilutions), listed as 41a'): 14 nM
